This assay addresses T1, rat mGlu2 (Rattus norvegicus, UniProt P31421).
T1 construct: expressed in transfected cells
Kind of assay: mGlu2 Ca2+ flux assay. The assay is classed as cell-based. To be noted: for IC50: Gα15 HEK293 cells stably expressing rat mGlu2, glutamate EC80 addition, read-out: rat mGlu2 IC50; for remaining activity at 30 µM: amplitude of response in the presence of 30 μM test compound as percentage of maximal response to glutamate, read-out: rat mGlu2 Glu max (%). Here is the method: Gα15 HEK293 cells stably expressing rat mGlu2 were plated in black-walled, clear-bottomed, poly-D-lysine coated 384-well plates in 20 μL of assay medium (DMEM containing 10% dialyzed FBS, 20 mM HEPES, and 1 mM sodium pyruvate) at a density of 12K cells/well. The cells were grown overnight at 37° C. in the presence of 5% CO2. The next day, medium was removed and the cells incubated with 20 μL of 2.3 μM Fluo-4, AM prepared as a 2.3 mM stock in DMSO and mixed in a 1:1 ratio with 10% (w/v) pluronic acid F-127 and diluted in assay buffer (Hank's balanced salt solution, 20 mM HEPES, and 2.5 mM probenecid) for 45 minutes at 37° C. Dye was removed, 20 μL of assay buffer was added, and the plate was incubated for 5 minutes at room temperature.
Ca^2+ flux was measured using the Functional Drug Screening System (FDSS7000, Hamamatsu, Japan). After establishment of a fluorescence baseline for about 3 seconds, the compounds of the present invention were added to the cells, and the response in cells was measured. 2.3 minutes later an EC20 concentration of the mGlu2 receptor agonist glutamate was added to the cells, and the response of the cells was measured for 1.9 minutes; an EC80 concentration of agonist was added and readings taken for an additional 1.7 minutes. All test compounds were dissolved and diluted to a concentration of 10 mM in 100% DMSO. Compounds were then serially diluted 1:3 in DMSO into 10 point concentration response curves, transferred to daughter plates, and further diluted into assay buffer to a 2× stock. Calcium fluorescence measures were recorded as fold over basal fluorescence; raw data was then normalized to the maximal response to glutamate. Antagonism of the agonist response of the mGlu2 receptor in the present invention was observed as a decrease in response to nearly maximal concentrations of glutamate in the presence of compound compared to the response to glutamate in the absence of compound.
The raw data file containing all time points was used as the data source in the analysis template. This was saved by the FDSS as a tab-delimited text file. Data were normalized using a static ratio function (F/F0) for each measurement of the total 360 values per well divided by each well's initial value. Data were then reduced to peak amplitudes (Max−Initial Min) using a time range that starts approximately 3 seconds prior to the glutamate EC80 addition and continues for approximately 90 seconds. This is sufficient time to capture the peak amplitude of the cellular calcium response. Individual amplitudes were expressed as % ECMax by multiplying each amplitude by 100 and then dividing the product by the mean of the amplitudes derived from the glutamate ECMax-treated wells. IC50 values for test compounds were generated by fitting the normalized values versus the log of the test compound concentration (in mol/L) using a 4 parameter logistic equation where none of the parameters were fixed. Each of the three values collected at each concentration of test compound were weighted evenly.
For NAMs, potency (IC50) and maximum response (% Glu Max), i.e. the amplitude of response in the presence of 30 μM test compound as a percentage of the maximal response to glutamate, are reported. […] Compounds with no measurable activity are designated as “>30,000 nM” since the top concentration of compound tested in the assay is 30 μM.
A general note: Calcium flux is commonly read through the fluorescence of an indicator in the cells.

T1 sequence (P31421 19-872): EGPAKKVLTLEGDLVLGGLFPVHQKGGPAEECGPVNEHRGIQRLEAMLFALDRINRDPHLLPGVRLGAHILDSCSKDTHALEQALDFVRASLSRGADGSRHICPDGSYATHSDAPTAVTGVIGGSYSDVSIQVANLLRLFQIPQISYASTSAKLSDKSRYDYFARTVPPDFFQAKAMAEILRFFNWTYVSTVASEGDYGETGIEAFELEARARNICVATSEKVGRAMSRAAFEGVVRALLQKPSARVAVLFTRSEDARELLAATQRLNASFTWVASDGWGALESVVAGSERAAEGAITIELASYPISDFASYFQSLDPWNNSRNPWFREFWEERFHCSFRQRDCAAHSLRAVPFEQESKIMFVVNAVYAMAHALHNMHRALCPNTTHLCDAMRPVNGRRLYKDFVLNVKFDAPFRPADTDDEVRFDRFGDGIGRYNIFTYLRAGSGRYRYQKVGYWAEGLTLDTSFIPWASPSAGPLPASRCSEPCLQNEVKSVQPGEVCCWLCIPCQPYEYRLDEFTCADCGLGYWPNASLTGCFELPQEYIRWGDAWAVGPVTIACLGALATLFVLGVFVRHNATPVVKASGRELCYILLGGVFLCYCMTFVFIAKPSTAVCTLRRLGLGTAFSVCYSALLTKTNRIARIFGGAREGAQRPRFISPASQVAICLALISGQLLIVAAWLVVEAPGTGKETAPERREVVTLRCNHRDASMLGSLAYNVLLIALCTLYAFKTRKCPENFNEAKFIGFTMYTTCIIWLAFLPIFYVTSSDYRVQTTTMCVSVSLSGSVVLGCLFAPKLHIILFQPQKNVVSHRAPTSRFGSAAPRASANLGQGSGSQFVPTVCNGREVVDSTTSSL

In the case of `NC(=O)c1cn(-c2ccc(F)cc2)c2ccc(N3CCC(N4CCOCC4)C3)cc2c1=O` (stereo not drawn) [Compound 50, 1-(4-fluorophenyl)-6-(3-morpholinopyrrolidin-1-yl)-4-oxo-1,4-dihydroquinoline-3-carboxamide], the concentration for half-maximal inhibition (IC50) – broadly, the concentration at which inhibition is half-maximal – was 1.32 µM and the remaining activity at 30 µM was 1.08%.

For the compound `CN(Cc1cccnc1)c1cc(F)c2c(c1)c(=O)c(C(N)=O)cn2-c1ccc(F)cc1` [Compound 51, 8-fluoro-1-(4-fluorophenyl)-6-(methyl(pyridin-3-ylmethyl)amino)-4-oxo-1,4-dihydroquinoline-3-carboxamide], the IC50 came out at 1.18 µM and the remaining activity at 30 µM came to 1.39%.

As to `CN(Cc1cccnc1)c1cc2c(=O)c(C(N)=O)cn(-c3ccc(F)cc3)c2cc1F` [Compound 52, 7-Fluoro-1-(4-fluorophenyl)-6-(methyl(pyridin-3-ylmethyl)amino)-4-oxo-1,4-dihydroquinoline-3-carboxamide], the half-maximal inhibitory concentration (IC50) was determined as 0.669 µM and the remaining activity at 30 µM turned out to be 2.26%.

For `NC(=O)c1cn(-c2ccc(F)cc2)c2ccc(NCC3CCOCC3)cc2c1=O` [Compound 53, 1-(4-fluorophenyl)-4-oxo-6-(((tetrahydro-2H-pyran-4-yl)methyl)amino)-1,4-dihydroquinoline-3-carboxamide], the IC50 stood at 0.659 µM and the remaining activity at 30 µM is 1.04%.

With `Cc1ncc(CCc2cc3c(=O)c(C(N)=O)cn(-c4ccc(F)cc4)c3cc2F)cn1` [Compound 54, 7-fluoro-1-(4-fluorophenyl)-6-(2-(2-methylpyrimidin-5-yl)ethyl)-4-oxo-1,4-dihydroquinoline-3-carboxamide], the IC50 amounted to 2.7 µM and the remaining activity at 30 µM was found to be 1.02%.

Take `Cc1ccc(Oc2ccc3c(c2)c(=O)c(C(N)=O)cn3-c2ccc(F)cc2)cn1` [Compound 55, 1-(4-Fluorophenyl)-6-((6-methylpyridin-3-yl)oxy)-4-oxo-1,4-dihydroquinoline-3-carboxamide]: the IC50 was 1.71 µM and the remaining activity at 30 µM came out at 1.96%.

For `NC(=O)c1cn(-c2ccc(F)cc2)c2ccc(Oc3cccnc3)cc2c1=O` [Compound 56, 1-(4-fluorophenyl)-4-oxo-6-(pyridin-3-yloxy)-1,4-dihydroquinoline-3-carboxamide], the IC50 was found to be 0.882 ± 0.16 µM and the remaining activity at 30 µM amounted to 1.84 ± 0.47%.

With `Cc1ncc(Oc2ccc3c(c2)c(=O)c(C(N)=O)cn3-c2ccc(F)cc2)cn1` [Compound 57, 1-(4-fluorophenyl)-6-((2-methylpyrimidin-5-yl)oxy)-4-oxo-1,4-dihydroquinoline-3-carboxamide], the IC50 was determined as 4.48 µM and the remaining activity at 30 µM amounted to 15.7%.

Regarding `NC(=O)c1cn(-c2ccc(F)cc2)c2ccc(Oc3ccc(F)nc3)cc2c1=O` [Compound 58, 1-(4-fluorophenyl)-6-((6-fluoropyridin-3-yl)oxy)-4-oxo-1,4-dihydroquinoline-3-carboxamide], the IC50 is 1.36 µM and the remaining activity at 30 µM was determined as 1.18%.

`NC(=O)c1cn(-c2ccc(F)cc2)c2ccc(Oc3cncc(F)c3)cc2c1=O` [Compound 59, 1-(4-fluorophenyl)-6-((5-fluoropyridin-3-yl)oxy)-4-oxo-1,4-dihydroquinoline-3-carboxamide]: the IC50 was 2.11 µM and the remaining activity at 30 µM was 0.44%.

As for `NC(=O)c1cn(-c2ccc(F)cc2)c2ccc(-c3cccnc3)cc2c1=O` [Compound 60, 1-(4-fluorophenyl)-4-oxo-6-(pyridin-3-yl)-1,4-dihydroquinoline-3-carboxamide], the 50% inhibitory concentration (IC50) worked out at 0.277 µM and the remaining activity at 30 µM came to 1.33%.

For the compound `Cn1cc(-c2ccc3c(c2)c(=O)c(C(N)=O)cn3-c2ccc(F)cc2)cn1` [Compound 61, 1-(4-fluorophenyl)-6-(1-methyl-1H-pyrazol-4-yl)-4-oxo-1,4-dihydroquinoline-3-carboxamide], the IC50 was found to be 0.544 µM and the remaining activity at 30 µM worked out at 0.41%.

`Cc1ncc(-c2ccc3c(c2)c(=O)c(C(N)=O)cn3-c2ccc(F)cc2)cn1` [Compound 62, 1-(4-fluorophenyl)-6-(2-methylpyrimidin-5-yl)-4-oxo-1,4-dihydroquinoline-3-carboxamide]: the IC50 is above 10 µM and the remaining activity at 30 µM was found to be 30.3%.

Take `NC(=O)c1cn(-c2ccc(F)cc2)c2ccc(-c3ccncc3)cc2c1=O` [Compound 63, 1-(4-fluorophenyl)-4-oxo-6-(pyridin-4-yl)-1,4-dihydroquinoline-3-carboxamide]: the IC50 came to 0.407 µM and the remaining activity at 30 µM came to 0.97%.

For `C[C@@H]1CN(Cc2ccc3c(c2)c(=O)c(C(N)=O)cn3-c2ccc(F)cc2)C[C@H](C)O1` [Compound 64, 6-((cis-2,6-Dimethylmorpholino)methyl)-1-(4-fluorophenyl)-4-oxo-1,4-dihydroquinoline-3-carboxamide], the half-maximal inhibitory concentration (IC50) came out at 0.222 ± 0.036 µM and the remaining activity at 30 µM is 1.42 ± 0.51%.

Consider `NC(=O)c1cn(-c2ccc(F)cc2)c2ccc(CN3CC4(C3)CC(F)(F)C4)cc2c1=O` [Compound 65, 6-((6,6-difluoro-2-azaspiro[3.3]heptan-2-yl)methyl)-1-(4-fluorophenyl)-4-oxo-1,4-dihydroquinoline-3-carboxamide], for which the IC50 turned out to be 2.02 µM and the remaining activity at 30 µM was 1.93%.

Turning to `NC(=O)c1cn(-c2ccc(F)cc2)c2ccc(CN3CCN(C4CC4)CC3)cc2c1=O` [Compound 66, 6-((4-cyclopropylpiperazin-1-yl)methyl)-1-(4-fluorophenyl)-4-oxo-1,4-dihydroquinoline-3-carboxamide], the IC50 was found to be 1.29 µM and the remaining activity at 30 µM worked out at 1.89%.

With `NC(=O)c1cn(-c2ccc(F)cc2)c2ccc(CN3CCCC4CCCCC43)cc2c1=O` (stereo not drawn) [Compound 67, 1-(4-fluorophenyl)-6-((octahydroquinolin-1(2H)-yl)methyl)-4-oxo-1,4-dihydroquinoline-3-carboxamide], the IC50 was determined as 0.617 µM and the remaining activity at 30 µM was found to be 2.4%.

On to `CC1CCN(C)CCN1Cc1ccc2c(c1)c(=O)c(C(N)=O)cn2-c1ccc(F)cc1` (stereo not drawn) [Compound 68, 6-((4,7-dimethyl-1,4-diazepan-1-yl)methyl)-1-(4-fluorophenyl)-4-oxo-1,4-dihydroquinoline-3-carboxamide], for which the IC50 worked out at 4.04 µM and the remaining activity at 30 µM is 2.47%.

Turning to `CN(Cc1ccc2c(c1)c(=O)c(C(N)=O)cn2-c1ccc(F)cc1)C1CCCC1` [Compound 69, 6-((cyclopentyl(methyl)amino)methyl)-1-(4-fluorophenyl)-4-oxo-1,4-dihydroquinoline-3-carboxamide], the IC50 is 2.19 µM and the remaining activity at 30 µM is 1.39%.

As for `CN(Cc1ccc2c(c1)c(=O)c(C(N)=O)cn2-c1ccc(F)cc1)C1CC1` [Compound 70, 6-((cyclopropyl(methyl)amino)methyl)-1-(4-fluorophenyl)-4-oxo-1,4-dihydroquinoline-3-carboxamide], the IC50 was determined as 0.821 µM and the remaining activity at 30 µM is 1.33%.

Regarding `NC(=O)c1cn(-c2ccc(F)cc2)c2ccc(CN3CCCSCC3)cc2c1=O` [Compound 71, 6-((1,4-thiazepan-4-yl)methyl)-1-(4-fluorophenyl)-4-oxo-1,4-dihydroquinoline-3-carboxamide], the IC50 came to 0.164 µM and the remaining activity at 30 µM came out at 2.06%.

Turning to `NC(=O)c1cn(-c2ccc(F)cc2)c2ccc(CN3CCCOCC3)cc2c1=O` [Compound 72, 6-((1,4-oxazepan-4-yl)methyl)-1-(4-fluorophenyl)-4-oxo-1,4-dihydroquinoline-3-carboxamide], the 50% inhibitory concentration (IC50) is above 10 µM and the remaining activity at 30 µM amounted to 29.6%.

Consider `NC(=O)c1cn(-c2ccc(F)cc2)c2ccc(CN3CCCCCC3)cc2c1=O` [Compound 73, 6-(azepan-1-ylmethyl)-1-(4-fluorophenyl)-4-oxo-1,4-dihydroquinoline-3-carboxamide], for which the IC50 was determined as 2.59 µM and the remaining activity at 30 µM stood at 0.96%.

The values are drawn from patent publication US9382208B1, “Negative allosteric modulators of metabotropic glutamate receptor 2” (Vanderbilt University, priority 2015, dated 2016).
